Read-outs that look alike come from different tables or passages of the source.
What was measured:
S. Aureus Smith = test: In vitro antibacterial activity, MIC (modified Autotiter method); assay type: cell-based, Staphylococcus aureus; conditions: 18-20 hours at 37° C.; for MIC: Staphylococcus aureus, 20 h, read-out: MIC S. Aureus Smith
In short: (§1)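 MIC by modified Autotiter twofold broth dilution from a 1,000 mcg./ml. compound solution in inoculated semisynthetic glucose medium. Final drug concentrations ranged from 500 to 0.06 mcg./ml.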

E. coli 100/B22 = test: as above; assay type: cell-based, Escherichia coli; conditions: 18-20 hours at 37° C.; for MIC: Escherichia coli, 100/B22, 20 h, read-out: MIC E. coli 100/B22
In short: as §1

E. coli AB1932-1 = test: as above; assay type: cell-based, Escherichia coli; conditions: 18-20 hours at 37° C.; for MIC: Escherichia coli, AB19321, 20 h, read-out: MIC E. coli AB1932-1
In short: as §1

E. coli Vogel = test: as above; assay type: cell-based, Escherichia coli; conditions: 18-20 hours at 37° C.; for MIC: Escherichia coli, 20 h, read-out: MIC E. coli Vogel
In short: as §1

K. pneum. 39645 = test: as above; assay type: cell-based, Klebsiella pneumoniae; conditions: 18-20 hours at 37° C.; for MIC: Klebsiella pneumoniae, 20 h, read-out: MIC K. pneum. 39645
In short: as §1

P. mirab. MGH-1 = test: as above; assay type: cell-based, Proteus mirabilis; conditions: 18-20 hours at 37° C.; for MIC: Proteus mirabilis, 20 h, read-out: MIC P. mirab. MGH-1
In short: as §1

Ps. aerug. MGH-2 = test: as above; assay type: cell-based, Pseudomonas aeruginosa; conditions: 18-20 hours at 37° C.; for MIC: Pseudomonas aeruginosa, 20 h, read-out: MIC Ps. aerug. MGH-2
In short: as §1

S. pyogen. C203 = test: as above; assay type: cell-based, Streptococcus pyogenes; conditions: 18-20 hours at 37° C.; for MIC: Streptococcus pyogenes, 20 h, read-out: MIC S. pyogen. C203
In short: as §1

A. niger 16404 = test: In vitro antifungal activity, MIC (modified Autotiter method); assay type: cell-based, Aspergillus niger; conditions: 18-20 hours at 37° C.; for MIC: Aspergillus niger, 16404, 20 h, read-out: MIC A. niger 16404
In short: as §1

C. albicans 10231 = test: as above; assay type: cell-based, Candida albicans; conditions: 18-20 hours at 37° C.; for MIC: Candida albicans, 10231, 20 h, read-out: MIC C. albicans 10231
In short: as §1

C. albicans Wisc. = test: as above; assay type: cell-based, Candida albicans; conditions: 18-20 hours at 37° C.; for MIC: Candida albicans, 20 h, read-out: MIC C. albicans Wisc.
In short: as §1

T. menta. 9129 = test: as above; assay type: cell-based, Trichophyton mentagrophytes; conditions: 18-20 hours at 37° C.; for MIC: Trichophyton mentagrophytes, 20 h, read-out: MIC T. menta. 9129
In short: as §1

S. Aureus ATCC 6538 = test: Effect of serum on bacteriostatic activity (serial tube dilution test); assay type: cell-based, Staphyloccocus aureus; conditions: for Fold Increase in MIC S. Aureus ATCC 6538: 40% vs 0% horse serum; for MIC: Staphylococcus aureus, ATCC6538
Description: (§2) Antibacterial effectiveness in the presence of serum was determined for representative examples by the standard serial tube dilution test wherein paired comparisons of minimum inhibitory concentrations (MIC) were determined in the absence and in the presence of heat inactivated (30 min. at 56° C.) horse serum (40%) in the test medium. The results are expressed as the fold increase in MIC (mcg./ml.) versus Staphyloccocus aureus and Escherichia coli caused by the presence of serum and are presented in Table B hereinbelow.

E. Coli ATCC 8739 = test: as above; assay type: cell-based, Escherichia coli; conditions: for Fold Increase in MIC E. Coli ATCC 8739: 40% vs 0% horse serum; for MIC: Escherichia coli, ATCC8739
Description: as §2

[1] = system: Herpes simplex type 2 virus; test: Virucidal activity in vitro (plaque inhibition test); assay type: cell-based; conditions: 2 mg. of test compound on growth medium
Description: Virucidal activity of representative examples against Herpes simplex type 2 virus was determined in vitro employing a procedure similar to the plaque inhibition test for detection of specific inhibitors of DNA-containing viruses published by E. C. Herrmann, Jr., Proc. Soc. Exp. Biol. Med. 107, 142 (1961) wherein 2 mg. of the test compound was placed on the surface of the growth medium.

[2] = 40% heat inactivated horse serum, read-out: MIC S. Aureus ATCC 6538 40% Serum
[3] = read-out: MIC S. Aureus ATCC 6538 0% Serum
[4] = 40% heat inactivated horse serum, read-out: MIC E. Coli ATCC 8739 40% Serum
[5] = read-out: MIC E. Coli ATCC 8739 0% Serum

Compound | MIC (S. Aureus Smith) [µg/mL] | MIC (E. coli 100/B22) [µg/mL] | MIC (E. coli AB1932-1) [µg/mL] | MIC (E. coli Vogel) [µg/mL] | MIC (K. pneum. 39645) [µg/mL] | MIC (P. mirab. MGH-1) [µg/mL] | MIC (A. niger 16404) [µg/mL] | MIC (C. albicans 10231) [µg/mL] | MIC (C. albicans Wisc.) [µg/mL] | MIC (T. menta. 9129) [µg/mL] | Fold Increase in MIC S. Aureus ATCC 6538 (S. Aureus ATCC 6538) [fold] | MIC (S. Aureus ATCC 6538; [2]) [µg/mL] | MIC (S. Aureus ATCC 6538; [3]) [µg/mL] | Fold Increase in MIC E. Coli ATCC 8739 (E. Coli ATCC 8739) [fold] | MIC (E. Coli ATCC 8739; [4]) [µg/mL] | MIC (E. Coli ATCC 8739; [5]) [µg/mL] | Virucidal activity against Herpes simplex type 2 virus [1] | MIC (Ps. aerug. MGH-2) [µg/mL] | MIC (S. pyogen. C203) [µg/mL] | also measured
CCCCCCCNc1cc[n+](CCCCCCCC[n+]2ccc(NCCCCCCC)cc2)cc1 [Example 22, 1,8-bis-[4-(heptylamino)-1-pyridinium]-octanedibromide] | 0.39 | 0.98 | 0.98 | 1.95 | 1.95 | 62.5 | 15.6 | 0.98 | 1.95 | 1.95 | 16 | 3.9 | 0.25 | 8 | 3.9 | 0.5 | active | – | – | MIC Ps. aerug. MGH-2 (Ps. aerug. MGH-2): 313 µg/mL; MIC S. pyogen. C203 (S. pyogen. C203): 0.49 µg/mL
CCCCCCCCNc1cc[n+](CCCCCC[n+]2ccc(NCCCCCCCC)cc2)cc1 [Example 13, 1,6-bis-[4-(octylamino)-1-pyridinium]hexane dibromide] | 0.5 | 1.95 | 1 | 1.95 | 3.9 | – | – | 1.95 | 1.95 | 0.5 | 128 | 31.2 | 0.25 | 32 | 31.2 | 1 | active | 31.3 | 0.5 | MIC P. mirab. MGH-1 (P. mirab. MGH-1): 31.3 µg/mL; MIC A. niger 16404 (A. niger 16404): 3.9 µg/mL
CCCCCCNc1cc[n+](CCCCCCCCCC[n+]2ccc(NCCCCCC)cc2)cc1 [Example 33, 1,10-bis-[4-(hexylamino)-1-pyridinium]decane dibromide] | 0.195 | 1.95 | 0.98 | 1.95 | 3.9 | 31.3 | 3.9 | 1.95 | 3.9 | 1.95 | 16 | 1.95 | 0.125 | 16 | 3.9 | 0.25 | active | 31.3 | 0.49 | –
Clc1ccc(Nc2cc[n+](CCCCCCCCCC[n+]3ccc(Nc4ccc(Cl)cc4)cc3)cc2)cc1 [Example 79B, 1,10-bis-[4-(p-chlorophenylamino)-1-pyridinium]decane dimethanesulfonate] | 0.4 | 1.6 | 0.8 | 1.6 | 3.1 | > 125 | 25 | 3.13 | 6.25 | 6.25 | 32 | 7.8 | 0.25 | 32 | 15.6 | 0.5 | inactive | 62.5 | 0.4 | –
CCCCCCCNc1cc[n+](CCCCC[n+]2ccc(NCCCCCCC)cc2)cc1 [Example 60, 1,5-bis-[4-(heptylamino)-1-pyridinium]pentane dibromide] | 0.49 | 7.8 | 3.9 | 31.3 | 31.3 | > 125 | 15.6 | 15.6 | 15.6 | 7.8 | – | – | – | – | – | – | active | 125 | 1.95 | –
c1c[n+](CCCCCCCCCC[n+]2ccc(NC3CCCCC3)cc2)ccc1NC1CCCCC1 [Example 40, 1,10-bis-[4-(cyclohexylamino)-1-pyridinium]decane dibromide] | 0.24 | 15.6 | 7.8 | 15.6 | > 125 | > 125 | 7.8 | 3.9 | 7.8 | 1.95 | – | – | – | – | – | – | inactive | > 125 | 3.9 | –
CCCCCCNc1cc[n+](CCCCCCCCCCCC[n+]2ccc(NCCCCCC)cc2)cc1 [Example 7, 1,12-bis-[4-(hexylamino)-1-pyridinium]dodecane dibromide] | – | – | – | – | – | – | – | – | – | – | 16 | 1.56 | 0.1 | 32 | 12.5 | 0.39 | active | – | – | MIC S. Aureus Smith (S. Aureus Smith): 0.15 µg/mL; MIC E. coli 100/B22 (E. coli 100/B22): 0.37 µg/mL; MIC E. coli AB1932-1 (E. coli AB1932-1): 0.37 µg/mL; MIC E. coli Vogel (E. coli Vogel): 0.37 µg/mL; MIC K. pneum. 39645 (K. pneum. 39645): 1.5 µg/mL; MIC P. mirab. MGH-1 (P. mirab. MGH-1): 6.0 µg/mL; MIC Ps. aerug. MGH-2 (Ps. aerug. MGH-2): 23.8 µg/mL; MIC S. pyogen. C203 (S. pyogen. C203): 1.0 µg/mL; MIC A. niger 16404 (A. niger 16404): 3.0 µg/mL; MIC C. albicans 10231 (C. albicans 10231): 0.74 µg/mL; MIC C. albicans Wisc. (C. albicans Wisc.): 0.74 µg/mL; MIC T. menta. 9129 (T. menta. 9129): 0.37 µg/mL
CCCCC(CC)CNc1cc[n+](CCCC[n+]2ccc(NCC(CC)CCCC)cc2)cc1 (stereo not shown) [Example 63, 1,4-bis-[4-(2-ethylhexylamino)-1-pyridinium]butane dibromide] | 0.98 | 31.3 | 7.8 | 62.5 | > 125 | > 125 | 31.3 | 31.3 | 31.3 | 15.6 | – | – | – | – | – | – | active | 125 | 1.25 | –
CCCCC(CC)CNc1cc[n+](CCCCCCC[n+]2ccc(NCC(CC)CCCC)cc2)cc1 (stereo not shown) [Example 55, 1,7-bis-[4-(2-ethylhexylamino)-1-pyridinium]heptane dibromide] | 0.49 | 3.9 | 3.9 | 3.9 | 7.8 | > 125 | 15.6 | 7.8 | 7.8 | 1.95 | – | – | – | – | – | – | active | 125 | 0.49 | –
CCCCCCNc1cc[n+](CCCCCCC[n+]2ccc(NCCCCCC)cc2)cc1 [Example 18, 1,7-bis-[4-(hexylamino)-1-pyridinium]heptane dibromide] | 0.39 | 7.8 | 7.8 | 15.6 | 15.6 | > 125 | 15.6 | 6.25 | 7.8 | 15.6 | – | – | – | – | – | – | active | > 125 | 0.49 | –

Reference: patent US4206215A, “Antimicrobial bis-[4-(substituted-amino)-1-pyridinium]alkanes” (Sterling Drug Inc., priority 1977, dated 1980)
